Test results as given in ChEMBL document CHEMBL5038591, “Identification of a Novel TAR RNA-Binding Protein 2 Modulator with Potential Therapeutic Activity against Hepatocellular Carcinoma” (J Med Chem, 2021).
Activity calls are given as the source filed them. The rule behind the calls is not given here.

Tests used:
SK-HEP1 [1] = experiment: Antiproliferative activity against human SK-HEP1 cells incubated for 24 hrs by alamar blue assay; assay type: functional, cell-based; details: SK-HEP1, 24 h
[2] = Antiproliferative activity against human QSG7701 cells incubated for 24 hrs by alamar blue assay; assay type: functional, cell-based; details: QSG7701, 24 h
SK-HEP1 [3] = experiment: Antiproliferative activity against human SK-HEP1 cells at 20 uM measured by crystal violet dye based colony formation assay; assay type: functional, cell-based
SK-HEP1 [4] = experiment: Inhibition of cell migration in human SK-HEP1 cells assessed as reduction in cell migration at 20 uM measured after 12 hrs using crystal violet staining inverted microscope based transwell assay; assay type: functional
Homo sapiens = organism: Homo sapiens; experiment: Binding affinity to PIWIL3 (unknown origin) at 30 uM incubated for 2 hrs by pull down assay
[5] = target: DNA topoisomerase 2-beta (Homo sapiens) (UniProt Q02880); experiment: Binding affinity to TOP2B (unknown origin) at 30 uM incubated for 2 hrs by pull down assay
HeLa [6] = experiment: Antiproliferative activity against human HeLa cells assessed as increase in miR-21 biogenesis level measured after 24 hrs by luciferase assay; assay type: functional, cell-based
SK-HEP1 [7] = experiment: Antiproliferative activity against human SK-HEP1 cells assessed as increase in miR-106b-5p level at 20 uM by qRT-PCR analysis; assay type: functional, cell-based
SK-HEP1 [8] = experiment: Antiproliferative activity against human SK-HEP1 cells assessed as increase in miR-21-5p level at 20 uM by qRT-PCR analysis; assay type: functional, cell-based
SK-HEP1 [9] = experiment: Antiproliferative activity against human SK-HEP1 cells assessed as increase in miR-26a-5p level at 20 uM by qRT-PCR analysis; assay type: functional, cell-based
SK-HEP1 [10] = experiment: Antiproliferative activity against human SK-HEP1 cells assessed as increase in miR-22-5p level at 20 uM by qRT-PCR analysis; assay type: functional, cell-based
SK-HEP1 [11] = experiment: Antiproliferative activity against human SK-HEP1 cells assessed as decrease in miR135a-5p level at 20 uM by qRT-PCR analysis; assay type: functional, cell-based
SK-HEP1 [12] = experiment: Antiproliferative activity against human SK-HEP1 cells assessed as decrease in miR-30a-5p level at 20 uM by qRT-PCR analysis; assay type: functional, cell-based
MHCC97 [13] = experiment: Antitumor activity in human MHCC97 cells xenografted in SCID mouse assessed as suppression of tumor growth at 20 mg/kg, ip administered once every 3 day for 30 days by bioluminescence analysis; assay type: functional, organism-based; details: time 30.0 day
MHCC97 [14] = experiment: Antimetastatic activity against human MHCC97 cells xenografted in SCID mouse assessed as decrease in liver metastasis at 20 mg/kg, ip administered once every 3 days and measured after 10 days; assay type: functional, organism-based; details: time 10.0 day
MHCC97 [15] = experiment: Antitumor activity in human MHCC97 cells xenografted in SCID mouse assessed as reduction in infiltration of inflammatory cells in left middle lobe of liver at 20 mg/kg, ip measured after 30 days by H and E staining based immunohistochemical analysis; assay type: functional, organism-based; details: time 30.0 day
MHCC97 [16] = experiment: Antitumor activity against human MHCC97 cells xenografted in SCID mouse assessed as decrease in tumor size at 20 mg/kg, ip administered once every 3 days and measured after 10 days; assay type: functional, organism-based; details: time 10.0 day
SK-HEP1 [17] = experiment: Antiproliferative activity against human SK-HEP1 cells at 20 uM incubated for 24 hrs by alamar blue assay; assay type: functional, cell-based
MHCC97 [18] = experiment: Antiproliferative activity against human MHCC97 cells at 20 uM incubated for 24 hrs by alamar blue assay; assay type: functional, cell-based
HepG2 = experiment: Antiproliferative activity against human HepG2 cells at 20 uM incubated for 24 hrs by alamar blue assay; assay type: functional, cell-based
Huh-7 = experiment: Antiproliferative activity against human Huh-7 cells at 20 uM incubated for 24 hrs by alamar blue assay; assay type: functional, cell-based
HeLa [19] = experiment: Antiproliferative activity against human HeLa cells at 20 uM incubated for 24 hrs by alamar blue assay; assay type: functional, cell-based
MHCC97 [20] = experiment: Antimetastatic activity against human MHCC97 cells xenografted in SCID mouse assessed as decrease in liver metastasis at 40 mg/kg, ip administered once every 3 days and measured after 10 days; assay type: functional, organism-based; details: time 10.0 day
[21] = Toxicity in SCID mouse xenografted with human MHCC97 cells assessed as increase in body weight at 40 mg/kg, ip administered once every 3 day for 30 days; assay type: organism-based; details: in vivo, 720 h, time 30 day

Chain of DNA topoisomerase 2-beta (Homo sapiens) (Q02880 whole entry): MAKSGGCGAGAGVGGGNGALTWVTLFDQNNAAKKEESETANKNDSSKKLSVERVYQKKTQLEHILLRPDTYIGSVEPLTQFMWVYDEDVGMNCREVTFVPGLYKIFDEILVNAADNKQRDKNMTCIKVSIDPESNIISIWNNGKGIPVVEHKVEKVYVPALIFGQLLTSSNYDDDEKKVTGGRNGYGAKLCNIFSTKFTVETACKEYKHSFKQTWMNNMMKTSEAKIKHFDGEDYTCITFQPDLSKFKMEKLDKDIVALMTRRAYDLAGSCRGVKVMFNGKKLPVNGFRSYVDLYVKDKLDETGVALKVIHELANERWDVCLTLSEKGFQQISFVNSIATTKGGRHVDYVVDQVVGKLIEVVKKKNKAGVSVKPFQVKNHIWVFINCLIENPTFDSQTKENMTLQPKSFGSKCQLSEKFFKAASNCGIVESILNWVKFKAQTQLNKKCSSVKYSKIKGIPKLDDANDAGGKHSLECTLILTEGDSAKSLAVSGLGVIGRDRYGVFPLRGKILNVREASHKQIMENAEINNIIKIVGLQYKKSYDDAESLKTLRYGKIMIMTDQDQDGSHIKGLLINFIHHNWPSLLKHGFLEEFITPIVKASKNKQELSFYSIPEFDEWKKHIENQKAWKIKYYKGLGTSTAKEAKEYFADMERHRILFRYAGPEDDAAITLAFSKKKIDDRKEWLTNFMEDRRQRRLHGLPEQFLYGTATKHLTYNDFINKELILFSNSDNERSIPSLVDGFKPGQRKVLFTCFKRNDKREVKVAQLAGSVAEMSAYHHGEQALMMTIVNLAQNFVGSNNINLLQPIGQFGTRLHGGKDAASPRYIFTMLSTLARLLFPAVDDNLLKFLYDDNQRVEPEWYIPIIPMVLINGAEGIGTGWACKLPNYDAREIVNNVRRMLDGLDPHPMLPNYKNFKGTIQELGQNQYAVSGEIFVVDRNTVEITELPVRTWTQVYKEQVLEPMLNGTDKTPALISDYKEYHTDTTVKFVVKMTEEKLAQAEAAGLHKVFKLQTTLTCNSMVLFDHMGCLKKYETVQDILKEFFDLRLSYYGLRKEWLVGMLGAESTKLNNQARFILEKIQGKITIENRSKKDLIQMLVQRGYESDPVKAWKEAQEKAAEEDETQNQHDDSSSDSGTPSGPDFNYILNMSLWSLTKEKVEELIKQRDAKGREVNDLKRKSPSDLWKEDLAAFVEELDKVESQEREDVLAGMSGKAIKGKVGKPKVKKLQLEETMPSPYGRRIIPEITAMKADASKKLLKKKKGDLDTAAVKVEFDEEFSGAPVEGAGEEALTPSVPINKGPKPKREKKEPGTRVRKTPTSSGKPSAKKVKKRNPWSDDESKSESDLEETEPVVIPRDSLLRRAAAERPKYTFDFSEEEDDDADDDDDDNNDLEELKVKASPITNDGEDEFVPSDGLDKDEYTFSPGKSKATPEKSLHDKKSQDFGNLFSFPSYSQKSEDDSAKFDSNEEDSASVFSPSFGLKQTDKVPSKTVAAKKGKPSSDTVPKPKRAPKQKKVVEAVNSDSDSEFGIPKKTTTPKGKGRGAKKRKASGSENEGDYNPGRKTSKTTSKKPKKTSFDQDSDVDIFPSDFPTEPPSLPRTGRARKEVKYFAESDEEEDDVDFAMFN

Row | Compound | IC50 (SK-HEP1 [1]) [µM] | IC50 [2] [µM] | further results
1 | COC(=O)c1cc2c(c(OC)c1-c1ccc(N(C)C(=O)CCCCCNC(=O)CCCC[C@@H]3SC[C@@H]4NC(=O)N[C@@H]43)cc1)OCO2 | – | – | Activity (SK-HEP1 [3]): Active; inhibition (SK-HEP1 [4]): Active; Activity (Homo sapiens): inactive; Activity [5]: inactive
2 | COC(=O)c1cc2c(c(OC)c1-c1ccc(N(C)C(=O)[C@H](C)NC(=O)OC(C)(C)C)cc1)OCO2 | 40.9 | 59.5 | –
3 | COc1c2c(cc(C(=O)Nc3ccccc3I)c1-c1ccc(N(C)C)cc1)OCO2 | 35.8 | 56.9 | –
4 | COC(=O)c1cc2c(c(OC)c1-c1ccc(N(C)C(=O)CN)cc1)OCO2 | > 100 | > 100 | –
5 | COC(=O)c1cc2c(c(OC)c1-c1ccc(N(C)C(=O)[C@H](C)N)cc1)OCO2 | 64.7 | 74.2 | –
6 | COC(=O)c1cc2c(c(OC)c1-c1ccc(N(C)C(=O)CN(C)C(=O)OC(C)(C)C)cc1)OCO2 | 89.7 | > 100 | –
7 | COc1c2c(cc(C(=O)Nc3ccccc3)c1-c1ccc(N(C)C)cc1)OCO2 | 38.4 | 58.5 | –
8 | COC(=O)c1cc2c(c(OC)c1-c1ccc(N(C)C(=O)CNC(=O)OC(C)(C)C)cc1)OCO2 | 39.6 | 63.2 | –
9 | COC(=O)c1cc2c(c(OC)c1-c1ccc(N(C)S(=O)(=O)c3ccc(F)cc3)cc1)OCO2 | 31.7 | 67.9 | –
10 | COc1cccc(NC(=O)c2cc3c(c(OC)c2-c2ccc(N(C)C)cc2)OCO3)c1 | 31.6 | 64.4 | –
11 | CCN(CC)CCNC(=O)c1cc2c(c(OC)c1-c1ccc(N(C)C)cc1)OCO2 | > 100 | > 100 | –
12 | COC(=O)c1cc2c(c(OC)c1-c1ccc(N(C)S(=O)(=O)c3ccc([N+](=O)[O-])cc3)cc1)OCO2 | 34.2 | 69.3 | –
13 | CNC(=O)c1cc(Oc2ccc(NC(=O)Nc3ccc(Cl)c(C(F)(F)F)c3)cc2)ccn1 [SORAFENIB] | – | – | Activity (MHCC97 [13]): Active; Activity (MHCC97 [20]): Active; Activity [21]: Toxic; Activity (MHCC97 [15]): Active; Activity (MHCC97 [16]): Active
14 | CNCC(=O)N(C)c1ccc(-c2c(C(=O)OC)cc3c(c2OC)OCO3)cc1 | > 100 | > 100 | –
15 | COC(=O)c1cc2c(c(OC)c1-c1ccc(N(C)S(C)(=O)=O)cc1)OCO2 | 47 | 75.9 | –

The next lines start with results.

Row | IC50 (SK-HEP1 [1]) [µM] | Compound | IC50 [2] [µM] | further results
16 | 29.9 | COC(=O)c1cc2c(c(OC)c1-c1ccc(N(C)C)cc1)OCO2 | 68.5 | –
17 | 22.7 | CNc1ccc(-c2c(C(=O)OC)cc3c(c2OC)OCO3)cc1Cl | 50.3 | –
18 | 25 | CCn1cc(C(=O)O)c(=O)c2cc(F)c(N3CCNCC3)nc21 [ENOXACIN] | 72.4 | IC50 (HeLa [6]): 25.8 µM; Activity (SK-HEP1 [7]): Active; Activity (SK-HEP1 [8]): Active; Activity (SK-HEP1 [9]): Active; Activity (SK-HEP1 [10]): Active; Activity (SK-HEP1 [11]): inactive; Activity (SK-HEP1 [12]): inactive; Activity (MHCC97 [13]): Active; Activity (MHCC97 [14]): inactive; Activity (MHCC97 [15]): Active; Activity (MHCC97 [16]): Active
19 | 19.4 | COC(=O)c1cc2c(c(OC)c1-c1ccc(N(C)C(=O)c3ccccc3)cc1)OCO2 | 48.4 | IC50 (HeLa [6]): 13 µM; Activity (SK-HEP1 [17]): Active; Activity (MHCC97 [18]): Active; Activity (HepG2): Active; Activity (Huh-7): Active; Activity (HeLa [19]): Active
20 | 24.4 | CNc1ccc(-c2c(C(=O)OC)cc3c(c2OC)OCO3)cc1 | 67.2 | IC50 (HeLa [6]): 15.6 µM; Activity (SK-HEP1 [3]): Active; inhibition (SK-HEP1 [4]): Active
21 | 28.7 | COC(=O)c1cc2c(c(OC)c1-c1ccc(N(C)S(=O)(=O)c3ccc(Br)cc3)cc1)OCO2 | 62.4 | –
22 | 26.7 | COC(=O)c1cc2c(c(OC)c1-c1ccc(N(C)S(=O)(=O)c3ccccc3)cc1)OCO2 | 61.4 | IC50 (HeLa [6]): 19.5 µM
23 | 23.6 | COc1c2c(cc(C(=O)NCc3ccccc3)c1-c1ccc(N(C)C)cc1)OCO2 | 56.4 | IC50 (HeLa [6]): 21.9 µM
